Measured values from publication PMC13110849 (ACS chemical neuroscience, 2023).

Molecular target: RhoA•GMPPNP binding to ROCK1 (Homo sapiens, UniProt P61586)
Assay: AlphaScreen assay of RhoA•GMPPNP binding to ROCK1
Settings: varying concentration, 24 h, 4 °C

Chain of RhoA•GMPPNP binding to ROCK1 (P61586 whole entry): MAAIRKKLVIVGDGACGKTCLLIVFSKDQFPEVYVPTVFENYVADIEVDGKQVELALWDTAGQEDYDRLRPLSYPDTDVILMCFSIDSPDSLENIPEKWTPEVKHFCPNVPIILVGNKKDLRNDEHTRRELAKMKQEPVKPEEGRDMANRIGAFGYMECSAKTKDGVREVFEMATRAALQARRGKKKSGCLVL

Inhibition of RhoA•GMPPNP binding to ROCK1: successfully inhibited
SMILES: Nc1nc2c(ncn2[C@@H]2O[C@H](COP(=O)(O)OP(=O)(O)O)[C@@H](O)[C@H]2O)c(=O)[nH]1 [GDP]
